Results: ChEMBL document CHEMBL2169792, “Synthesis of new 4-thiazolidinone-, pyrazoline-, and isatin-based conjugates with promising antitumor activity” (J Med Chem, 2012)
Active and inactive are the calls of the source. The calls are words filed in the database; no cut-off is given here.

How the values were obtained:
[1] = Cytotoxicity against human leukemia cells after 48 hrs by SRB assay; assay type: functional; details: Leukemia cell; for CC50: read-out: LC50 (the source's name)
[2] = Cytotoxicity against human non-small cell lung cancer cells after 48 hrs by SRB assay; assay type: functional; details: Cancer cell lines; for CC50: read-out: LC50 (the source's name)
[3] = Cytotoxicity against human breast cancer cells after 48 hrs by SRB assay; assay type: functional; details: Cancer cell lines
[4] = Cytotoxicity against human renal cancer cells after 48 hrs by SRB assay; assay type: functional; details: Cancer cell lines
[5] = Cytotoxicity against human ovarian cancer cells after 48 hrs by SRB assay; assay type: functional; details: Cancer cell lines
Mus musculus = test: Antitumor activity in ip dosed athymic nude mouse hollow fiber model assessed as reduction of viable cell mass; assay type: functional, organism-based
[6] = Cytotoxicity against human melanoma cells after 48 hrs by SRB assay; assay type: functional; details: Melanoma cell; for CC50: read-out: LC50 (the source's name)
[7] = Toxicity in mouse; assay type: organism-based; details: in vivo
[8] = Cytotoxicity against human colon cancer cells after 48 hrs by SRB assay; assay type: functional; details: Cancer cell lines
[9] = Cytotoxicity against human prostate cancer cells after 48 hrs by SRB assay; assay type: functional; details: Cancer cell lines
SF-539 = test: Cytotoxicity against human SF539 cells assessed as cell growth at 10 uM after 48 hrs by SRB assay; assay type: functional; details: SF-539, 48 h, read-out: Activity
[10] = Cytotoxicity against human CNS cancer cells after 48 hrs by SRB assay; assay type: functional; details: Cancer cell lines
TK-10 = test: Cytotoxicity against human TK10 cells assessed as cell growth at 10 uM after 48 hrs by SRB assay; assay type: functional; details: TK-10, 48 h, read-out: Activity
OVCAR-4 = test: Cytotoxicity against human OVCAR4 cells assessed as cell growth at 10 uM after 48 hrs by SRB assay; assay type: functional; details: OVCAR-4, 48 h, read-out: Activity
SNB-75 = test: Cytotoxicity against human SNB75 cells assessed as cell growth at 10 uM after 48 hrs by SRB assay; assay type: functional; details: SNB-75, 48 h, read-out: Activity
HCT-116 = test: Cytotoxicity against human HCT116 cells assessed as cell growth at 10 uM after 48 hrs by SRB assay; assay type: functional; details: HCT-116, 48 h, read-out: Activity
MOLT-4 = test: Cytotoxicity against human MOLT4 cells assessed as cell growth at 10 uM after 48 hrs by SRB assay; assay type: functional; details: MOLT-4, 48 h, read-out: Activity
SK-MEL-5 = test: Cytotoxicity against human SK-MEL-5 cells assessed as cell growth at 10 uM after 48 hrs by SRB assay; assay type: functional; details: SK-MEL-5, 48 h, read-out: Activity
OVCAR-3 = test: Cytotoxicity against human OVCAR3 cells assessed as cell growth at 10 uM after 48 hrs by SRB assay; assay type: functional; details: OVCAR-3, 48 h, read-out: Activity
786-0 = test: Cytotoxicity against human 786-0 cells assessed as cell growth at 10 uM after 48 hrs by SRB assay; assay type: functional; details: 786-0, 48 h, read-out: Activity
HL-60(TB) = test: Cytotoxicity against human HL-60(TB) cells assessed as cell growth at 10 uM after 48 hrs by SRB assay; assay type: functional; details: HL-60, 48 h, read-out: Activity

SMILES	GI50 [1] [µM]	TGI [1] [µM]	CC50 [1] [µM]	GI50 [2] [µM]	TGI [2] [µM]	CC50 [2] [µM]	GI50 [3] [µM]	LC50 (concentration causing 50% net cell kill) [3] [µM]	TGI [3] [µM]	GI50 [4] [µM]	LC50 [4] [µM]	TGI [4] [µM]	GI50 [5] [µM]	LC50 (concentration causing 50% net cell kill) [5] [µM]	TGI [5] [µM]	GI50 [6] [µM]	TGI [6] [µM]	CC50 [6] [µM]	GI50 [8] [µM]	LC50 (concentration lethal to 50% of cells) [8] [µM]	further results
COc1ccc(C2CC(c3ccccc3)=NN2C2=NC(=O)/C(=C3\C(=O)Nc4ccc(Br)cc43)S2)cc1 (stereo not drawn)	0.25	4.23	51	0.2	0.51	3.27	0.2	26.5	0.48	0.18	1.27	0.36	0.23	23.4	3.63	0.21	0.55	5.01	0.19	1.07	Activity (Mus musculus): inactive; MTD [7]: > 400 mg/kg; TGI [8]: 0.39 µM; GI50 [9]: 0.24 µM; LC50 [9]: 39.5 µM; TGI [9]: 0.66 µM; growth at 10 µM (SF-539): -55.1%; GI50 [10]: 0.18 µM; LC50 (concentration giving 50% net cell kill) [10]: 6.48 µM; TGI [10]: 0.39 µM
COc1ccc(C2CC(c3ccccc3)=NN2C2=NC(=O)/C(=C3\C(=O)N(CC(=O)O)c4ccccc43)S2)cc1 (stereo not drawn)	–	–	–	–	–	–	–	–	–	–	–	–	–	–	–	–	–	–	–	–	growth at 10 µM (TK-10): 97.3%
COc1ccc(-c2cc(-c3ccc4ccccc4c3)nn2C2C(=O)Nc3ccccc32)cc1 (stereo not drawn)	–	–	–	–	–	–	–	–	–	–	–	–	–	–	–	–	–	–	–	–	growth at 10 µM (OVCAR-4): 91.5%
O=C(O)CN1C(=O)C(n2nc(-c3ccccc3)cc2-c2ccccc2O)c2ccccc21 (stereo not drawn)	–	–	–	–	–	–	–	–	–	–	–	–	–	–	–	–	–	–	–	–	growth at 10 µM (SNB-75): 108%
O=C1N=C(N2N=C(c3ccccc3)CC2c2ccccc2O)S/C1=C1/C(=O)Nc2ccccc21 (stereo not drawn)	3.19	48.8	100	2.03	4.73	57.2	2.09	64.6	4.77	2.07	55.8	17.8	2.41	81.5	36.6	2.04	4.4	60.8	1.99	33.4	TGI [8]: 4.22 µM; GI50 [9]: 2.05 µM; LC50 [9]: 54.7 µM; TGI [9]: 4.35 µM; GI50 [10]: 2.13 µM; LC50 (concentration giving 50% net cell kill) [10]: 68.1 µM; TGI [10]: 5.37 µM; growth at 10 µM (HCT-116): -37.4%
COc1ccc(-c2cc(-c3ccc4ccccc4c3)nn2C2C(=O)Nc3ccc(Cl)cc32)cc1 (stereo not drawn)	–	–	–	–	–	–	–	–	–	–	–	–	–	–	–	–	–	–	–	–	growth at 10 µM (MOLT-4): 98.2%
O=C1Nc2ccc(Br)cc2C1n1nc(-c2ccc3ccccc3c2)cc1-c1ccc(Cl)cc1 (stereo not drawn)	10.4	15.2	79.2	3.31	10	34.5	4.3	62.1	14.3	2.5	27.2	7.66	3.09	33.2	9.85	6.53	22.4	56.8	4.33	51.1	TGI [8]: 15 µM; GI50 [9]: 2.57 µM; LC50 [9]: 34.4 µM; TGI [9]: 8.89 µM; growth at 10 µM (OVCAR-4): 58.5%; GI50 [10]: 3.18 µM; LC50 (concentration giving 50% net cell kill) [10]: 33.3 µM; TGI [10]: 10.5 µM
CN(C)c1ccc(C2CC(c3ccccc3)=NN2C2=NC(=O)/C(=C3\C(=O)Nc4ccc(Cl)cc43)S2)cc1 (stereo not drawn)	0.34	3.11	100	0.21	0.51	37.9	0.22	2.32	0.53	0.19	15.3	0.43	0.24	48.8	0.62	0.26	0.57	2.16	0.19	16.5	growth at 10 µM (SK-MEL-5): -52.9%; TGI [8]: 0.41 µM; GI50 [9]: 0.25 µM; LC50 [9]: 12.8 µM; TGI [9]: 0.69 µM; GI50 [10]: 0.19 µM; LC50 (concentration giving 50% net cell kill) [10]: 1.63 µM; TGI [10]: 0.43 µM
COc1ccc(C2=NN(C3=NC(=O)/C(=C4\C(=O)Nc5ccccc54)S3)C(c3ccc(Cl)cc3)C2)cc1 (stereo not drawn)	86.5	90.9	100	92.4	100	100	100	100	100	100	100	100	100	100	100	100	100	100	100	100	Activity (Mus musculus): inactive; MTD [7]: > 400 mg/kg; TGI [8]: 100 µM; GI50 [9]: 100 µM; LC50 [9]: 100 µM; TGI [9]: 100 µM; growth at 10 µM (OVCAR-3): 77.5%; GI50 [10]: 77.5 µM; LC50 (concentration giving 50% net cell kill) [10]: 100 µM; TGI [10]: 100 µM
O=C1N=C(N2N=C(c3ccccc3)CC2c2ccccc2O)S/C1=C1/C(=O)Nc2ccc(Br)cc21 (stereo not drawn)	0.27	1.05	9.49	0.24	0.67	7.24	0.26	3.59	0.8	0.23	2.55	0.63	0.28	19	0.94	0.23	0.66	2.43	0.21	1.67	growth at 10 µM (SK-MEL-5): -53.9%; TGI [8]: 0.46 µM; GI50 [9]: 0.29 µM; LC50 [9]: 7.68 µM; TGI [9]: 0.93 µM; GI50 [10]: 0.24 µM; LC50 (concentration giving 50% net cell kill) [10]: 4.12 µM; TGI [10]: 0.72 µM
O=C1Nc2ccc(Br)cc2C1n1nc(-c2ccccc2)cc1-c1ccc(Cl)cc1 (stereo not drawn)	–	–	–	–	–	–	–	–	–	–	–	–	–	–	–	–	–	–	–	–	growth at 10 µM (786-0): 90.1%
CN(C)c1ccc(-c2cc(-c3ccccc3)nn2C2C(=O)Nc3ccccc32)cc1 (stereo not drawn)	16.3	74.6	100	16.2	56	90.9	20.8	90.1	73.4	17.4	86.2	57.3	18.9	93.3	67.2	19.6	54.5	91.2	16.1	79	growth at 10 µM (HL-60(TB)): 70.9%; TGI [8]: 39.7 µM; GI50 [9]: 16.1 µM; LC50 [9]: 100 µM; TGI [9]: 74 µM; GI50 [10]: 21.2 µM; LC50 (concentration giving 50% net cell kill) [10]: 95.1 µM; TGI [10]: 68.7 µM
COc1ccc(C2CC(c3ccccc3)=NN2C2=NC(=O)/C(=C3\C(=O)Nc4ccccc43)S2)cc1 (stereo not drawn)	1.64	20.8	93	2.38	6.04	70.8	2.02	39	4.58	2.01	34.3	4.27	2.3	71.1	19	2	4.51	38	1.81	32	TGI [8]: 4.39 µM; GI50 [9]: 1.52 µM; LC50 [9]: 7.37 µM; TGI [9]: 3.35 µM; growth at 10 µM (OVCAR-3): -51.4%; GI50 [10]: 1.62 µM; LC50 (concentration giving 50% net cell kill) [10]: 7.39 µM; TGI [10]: 3.45 µM
